Values after ≈ are worked out from the molar mass of the structure shown.
Columns and labels:
[1] = biological target: T1, PBP3 from Pseudomonas aeruginosa (PAO1) (Pseudomonas aeruginosa, UniProt G3XD46); experiment: Bocillin-FL fluorescence polarization competition binding, P. aeruginosa PBP3; details: Binding affinity to P. aeruginosa PBP3; fluorescence polarization competition binding assay using Bocillin-FL; read-out: P. aeruginosa PBP3 Potency
T1 construct: made in house
In short: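 Purified PBP was preincubated with inhibitor (E. coli PBP3 1.5 μM, 30 min; P. aeruginosa PBP3 0.75 μM, A. baumannii PBP3 0.2 μM and PBP1a 1 μM, 15 min), then Bocillin-FL (0.1 μM; 0.05 μM for PBP1a) added and FP read up to 60 min. EC50 = 50% loss of bound probe.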

[2] = test system: A. baumannii CDC-0033; experiment: microbe, parasite or virus in culture; type: cell-based; details: Acinetobacter baumannii, CDC0033, read-out: MIC, A. baumannii CDC-0033
[3] = test system: P. aeruginosa CDC-0095; experiment: microbe, parasite or virus in culture; type: cell-based; details: Pseudomonas aeruginosa, CDC0095, read-out: Minimum inhibitory concentration, P. aeruginosa CDC-0095
[4] = biological target: A. baumannii PBP2 (Acinetobacter baumannii, UniProt D0C8Z9); experiment: Bocillin-FL competition binding via gel filtration, A. baumannii PBP2
Sequence of A. baumannii PBP2 (D0C8Z9 whole entry): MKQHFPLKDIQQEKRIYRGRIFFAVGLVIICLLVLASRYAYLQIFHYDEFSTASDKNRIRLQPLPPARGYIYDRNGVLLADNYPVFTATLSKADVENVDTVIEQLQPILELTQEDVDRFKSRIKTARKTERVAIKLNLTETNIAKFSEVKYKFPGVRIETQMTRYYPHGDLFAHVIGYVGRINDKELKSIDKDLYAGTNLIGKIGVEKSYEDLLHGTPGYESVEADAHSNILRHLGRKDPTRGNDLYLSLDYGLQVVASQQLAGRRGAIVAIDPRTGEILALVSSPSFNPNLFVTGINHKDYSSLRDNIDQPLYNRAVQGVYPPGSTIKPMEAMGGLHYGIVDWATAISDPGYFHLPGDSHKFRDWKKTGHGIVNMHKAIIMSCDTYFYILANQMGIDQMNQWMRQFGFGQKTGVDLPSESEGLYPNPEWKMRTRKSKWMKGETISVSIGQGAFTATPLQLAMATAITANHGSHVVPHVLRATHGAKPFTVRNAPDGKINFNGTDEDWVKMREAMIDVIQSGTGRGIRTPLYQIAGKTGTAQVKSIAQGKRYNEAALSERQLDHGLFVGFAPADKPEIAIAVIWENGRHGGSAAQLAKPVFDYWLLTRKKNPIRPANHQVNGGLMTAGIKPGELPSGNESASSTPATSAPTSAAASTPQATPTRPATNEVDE
In short: (§1)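 Competitive equilibrium binding with Bocillin-FL reporter: PBP pre-incubated with inhibitor dilutions, Bocillin-FL added, 15 min incubation. Labelled enzyme isolated by size-exclusion spin plates, fluorescence measured; EC50 obtained by fitting bound fraction against inhibitor concentration with a Hill-coefficient model.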

[5] = biological target: T2, A. baumannii PBP1a (Acinetobacter baumannii, UniProt A0ABX6CK30); experiment: Bocillin-FL competition binding via gel filtration, A. baumannii PBP1a; details: competition binding assay using Bocillin-FL via gel filtration; read-out: A. baumannii PBP1a Potency
T2 sequence (A0ABX6CK30 1-851): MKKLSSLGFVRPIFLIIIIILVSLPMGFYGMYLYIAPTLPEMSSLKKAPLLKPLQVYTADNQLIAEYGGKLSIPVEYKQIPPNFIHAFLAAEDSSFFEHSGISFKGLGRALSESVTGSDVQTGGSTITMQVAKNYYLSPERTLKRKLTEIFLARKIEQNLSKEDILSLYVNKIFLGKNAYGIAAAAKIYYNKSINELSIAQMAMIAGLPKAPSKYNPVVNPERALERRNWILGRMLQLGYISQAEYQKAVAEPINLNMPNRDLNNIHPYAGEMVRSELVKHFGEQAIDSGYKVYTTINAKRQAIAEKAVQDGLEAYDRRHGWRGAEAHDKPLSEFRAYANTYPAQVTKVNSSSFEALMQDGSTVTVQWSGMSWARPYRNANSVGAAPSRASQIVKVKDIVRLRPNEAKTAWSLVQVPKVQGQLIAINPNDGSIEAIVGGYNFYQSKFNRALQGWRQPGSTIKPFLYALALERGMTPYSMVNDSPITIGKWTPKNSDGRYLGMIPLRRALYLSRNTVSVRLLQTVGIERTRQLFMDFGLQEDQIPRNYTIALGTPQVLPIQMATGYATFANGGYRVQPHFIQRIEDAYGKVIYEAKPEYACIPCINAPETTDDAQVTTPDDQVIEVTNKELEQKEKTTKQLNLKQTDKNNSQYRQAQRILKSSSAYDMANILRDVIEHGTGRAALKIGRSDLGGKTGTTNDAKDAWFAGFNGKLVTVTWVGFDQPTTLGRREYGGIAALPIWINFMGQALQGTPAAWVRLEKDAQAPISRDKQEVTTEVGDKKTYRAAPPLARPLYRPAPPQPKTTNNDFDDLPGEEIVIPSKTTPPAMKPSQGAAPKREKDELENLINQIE
In short: as §1

[6] = test system: A. baumannii CDC-0045; experiment: microbe, parasite or virus in culture; type: cell-based; details: Acinetobacter baumannii, CDC0045, read-out: MIC, A. baumannii CDC-0045

T1 sequence (G3XD46 whole entry): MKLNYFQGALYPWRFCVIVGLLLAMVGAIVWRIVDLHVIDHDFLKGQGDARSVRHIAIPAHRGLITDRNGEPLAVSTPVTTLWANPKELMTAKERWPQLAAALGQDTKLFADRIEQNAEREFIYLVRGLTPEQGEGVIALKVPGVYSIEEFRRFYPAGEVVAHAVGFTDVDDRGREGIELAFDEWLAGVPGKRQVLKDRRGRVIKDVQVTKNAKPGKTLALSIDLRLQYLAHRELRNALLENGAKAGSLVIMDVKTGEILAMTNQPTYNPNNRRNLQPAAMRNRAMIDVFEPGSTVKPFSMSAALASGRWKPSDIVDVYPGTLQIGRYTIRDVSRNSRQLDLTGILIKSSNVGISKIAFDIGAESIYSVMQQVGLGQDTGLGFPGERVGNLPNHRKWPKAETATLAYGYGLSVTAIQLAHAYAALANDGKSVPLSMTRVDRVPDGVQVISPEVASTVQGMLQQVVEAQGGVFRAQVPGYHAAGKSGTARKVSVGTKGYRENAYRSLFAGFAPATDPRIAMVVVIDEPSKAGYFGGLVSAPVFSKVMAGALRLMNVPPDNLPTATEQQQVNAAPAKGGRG

Structure (SMILES): O=C(NCCCN1CCN(C(=O)NC(C(=O)N[C@H]2Cc3ccc(F)c(C(=O)O)c3OB2O)c2cc(F)c(O)c(O)c2Cl)C(=O)C1=O)c1cc(F)ncc1F (mixture of isomers) [Example 405]
- IC50 [1]: < 10 µM
- MIC [2]: 2 to 4 µg/mL
- MIC [3]: 2 to 4 µg/mL
- EC50 [4]: 10 to 50 µM
- EC50 [5]: 10 to 50 µM
- MIC [6]: < 1 µg/mL

Structure (SMILES): O=C(NCCCN1CCN(C(=O)N[C@@H](C(=O)N[C@H]2Cc3ccc(F)c(C(=O)O)c3OB2O)c2cc(F)c(O)c(O)c2Cl)C(=O)C1=O)c1cc(F)nc(F)c1 (racemic) [Example 401]
- IC50 [1]: < 10 µM
- MIC [2]: 2 to 4 µg/mL (≈ 2.56 to 5.12 µM)
- MIC [3]: < 1 µg/mL
- EC50 [4]: 10 to 50 µM
- EC50 [5]: < 10 µM
- MIC [6]: < 1 µg/mL

Structure (SMILES): O=C(NCCCN1CCN(C(=O)N[C@@H](C(=O)N[C@H]2Cc3ccc(F)c(C(=O)O)c3OB2O)c2cc(F)c(O)c(O)c2Cl)C(=O)C1=O)c1ccc(O)cc1F (racemic) [Example 417]
- IC50 [1]: < 10 µM
- MIC [2]: 2 to 4 µg/mL (≈ 2.57 to 5.14 µM)
- MIC [3]: 8 to 16 µg/mL (≈ 10.3 to 20.6 µM)
- EC50 [4]: < 10 µM
- EC50 [5]: 10 to 50 µM
- MIC [6]: < 1 µg/mL

Structure (SMILES): O=C(NCCCN1CCN(C(=O)N[C@@H](C(=O)N[C@H]2Cc3ccc(F)c(C(=O)O)c3OB2O)c2cc(F)c(O)c(O)c2Cl)C(=O)C1=O)c1c(F)cc(O)cc1F (racemic) [Example 420]
- IC50 [1]: < 10 µM
- MIC [2]: 2 to 4 µg/mL (≈ 2.51 to 5.03 µM)
- MIC [3]: 2 to 4 µg/mL (≈ 2.51 to 5.03 µM)
- EC50 [4]: 10 to 50 µM
- EC50 [5]: 10 to 50 µM
- MIC [6]: < 1 µg/mL

Structure (SMILES): O=C(O)c1c(F)ccc2c1OB(O)[C@@H](NC(=O)[C@@H](NC(=O)N1CCN(C3CCN(C(=O)Nc4ccc(O)cc4)CC3)C1=O)c1cc(F)c(O)c(O)c1Cl)C2 (single isomer, unassigned) [Example 467]
- IC50 [1]: < 10 µM
- MIC [2]: < 1 µg/mL
- MIC [3]: < 1 µg/mL
- EC50 [5]: < 10 µM
- MIC [6]: < 1 µg/mL

Structure (SMILES): O=C(O)c1c(F)ccc2c1OB(O)[C@@H](NC(=O)[C@H](NC(=O)N1CCN(C3CCN(C(=O)Nc4ccc(O)cc4)CC3)C1=O)c1cc(F)c(O)c(O)c1Cl)C2 (single isomer, unassigned) [Example 468]
- IC50 [1]: < 10 µM
- MIC [2]: < 1 µg/mL
- MIC [3]: < 1 µg/mL
- EC50 [4]: < 10 µM
- EC50 [5]: < 10 µM
- MIC [6]: < 1 µg/mL

Structure (SMILES): O=C(NCCCN1CCN(C(=O)N[C@@H](C(=O)N[C@H]2Cc3ccc(F)c(C(=O)O)c3OB2O)c2cc(F)c(O)c(O)c2Cl)C(=O)C1=O)c1ccc(O)cc1Cl (single isomer, unassigned) [Example 471]
- IC50 [1]: < 10 µM
- MIC [2]: 2 to 4 µg/mL (≈ 2.52 to 5.04 µM)
- MIC [3]: < 1 µg/mL
- EC50 [4]: < 10 µM
- EC50 [5]: < 10 µM
- MIC [6]: < 1 µg/mL

Structure (SMILES): O=C(NCCCN1CCN(C(=O)N[C@@H](C(=O)N[C@H]2Cc3ccc(F)c(C(=O)O)c3OB2O)c2cc(F)c(O)c(O)c2Cl)C(=O)C1=O)c1cc(F)c(O)cc1F (single isomer, unassigned) [Example 473]
- IC50 [1]: < 10 µM
- MIC [2]: 2 to 4 µg/mL (≈ 2.51 to 5.03 µM)
- MIC [3]: < 1 µg/mL
- EC50 [4]: < 10 µM
- EC50 [5]: < 10 µM
- MIC [6]: < 1 µg/mL

Structure (SMILES): O=C(NCCCS(=O)(=O)N1CCN(C(=O)NC(C(=O)N[C@H]2Cc3ccc(F)c(C(=O)O)c3OB2O)c2cc(F)c(O)c(O)c2Cl)C1=O)Nc1cccnc1 (stereo partly drawn) [Example 278, (3R)-3-(2-(2-chloro-5-fluoro-3,4-dihydroxyphenyl)-2-(2-oxo-3-((3-(3-(pyridin-3-yl)ureido)propyl)sulfonyl)imidazolidine-1-carboxamido)acetamido)-7-fluoro-2-hydroxy-3,4-dihydro-2H-benzo[e][1,2]oxaborinine-8-carboxylic acid]
- IC50 [1]: < 10 µM
- MIC [2]: 8 to 16 µg/mL (≈ 10.1 to 20.1 µM)
- MIC [3]: 8 to 16 µg/mL (≈ 10.1 to 20.1 µM)
- EC50 [5]: 10 to 50 µM
- MIC [6]: < 1 µg/mL

Structure (SMILES): O=C(NCCS(=O)(=O)N1CCN(C(=O)N[C@@H](C(=O)N[C@H]2Cc3ccc(F)c(C(=O)O)c3OB2O)c2cc(F)c(O)c(O)c2Cl)C1=O)Nc1ccncc1 [Example 290, (R)-3-((R)-2-(2-chloro-5-fluoro-3,4-dihydroxyphenyl)-2-(2-oxo-3-((2-(3-(pyridin-4-yl)ureido)ethyl)sulfonyl)imidazolidine-1-carboxamido)acetamido)-7-fluoro-2-hydroxy-3,4-dihydro-2H-benzo[e][1,2]oxaborinine-8-carboxylic acid]
- IC50 [1]: < 10 µM
- MIC [2]: 2 to 4 µg/mL (≈ 2.56 to 5.12 µM)
- MIC [3]: 2 to 4 µg/mL (≈ 2.56 to 5.12 µM)
- EC50 [4]: < 10 µM
- MIC [6]: < 1 µg/mL

Structure (SMILES): O=C(NCCCN1CCN(C(=O)N[C@@H](C(=O)N[C@H]2Cc3ccc(F)c(C(=O)O)c3OB2O)c2cc(F)c(O)c(O)c2Cl)C(=O)C1=O)c1ccnc(F)c1F [Example 300, (R)-3-((R)-2-(2-chloro-5-fluoro-3,4-dihydroxyphenyl)-2-(4-(3-(2,3-difluoroisonicotinamido)propyl)-2,3-dioxopiperazine-1-carboxamido)acetamido)-7-fluoro-2-hydroxy-3,4-dihydro-2H-benzo[e][1,2]oxaborinine-8-carboxylic acid]
- IC50 [1]: < 10 µM
- MIC [2]: 2 to 4 µg/mL (≈ 2.56 to 5.12 µM)
- MIC [3]: 2 to 4 µg/mL (≈ 2.56 to 5.12 µM)
- EC50 [5]: 10 to 50 µM
- MIC [6]: < 1 µg/mL

Structure (SMILES): Cc1cc(C(=O)NCCCN2CCN(C(=O)NC(C(=O)N[C@H]3Cc4ccc(F)c(C(=O)O)c4OB3O)c3cc(F)c(O)c(O)c3Cl)C(=O)C2=O)c(F)cn1 (stereo partly drawn) [Example 301, (3R)-3-(2-(2-chloro-5-fluoro-3,4-dihydroxyphenyl)-2-(4-(3-(5-fluoro-2-methylisonicotinamido)propyl)-2,3-dioxopiperazine-1-carboxamido)acetamido)-7-fluoro-2-hydroxy-3,4-dihydro-2H-benzo[e][1,2]oxaborinine-8-carboxylic acid]
- IC50 [1]: < 10 µM
- MIC [2]: 2 to 4 µg/mL (≈ 2.57 to 5.15 µM)
- MIC [3]: < 1 µg/mL
- EC50 [5]: 10 to 50 µM
- MIC [6]: < 1 µg/mL

Structure (SMILES): O=C(NCCCN1CCN(C(=O)N[C@@H](C(=O)N[C@H]2Cc3ccc(F)c(C(=O)O)c3OB2O)c2cc(F)c(O)c(O)c2Cl)C(=O)C1=O)c1cccc(O)c1Cl [Example 303, (R)-3-((R)-2-(4-(3-(2-chloro-3-hydroxybenzamido)propyl)-2,3-dioxopiperazine-1-carboxamido)-2-(2-chloro-5-fluoro-3,4-dihydroxyphenyl)acetamido)-7-fluoro-2-hydroxy-3,4-dihydro-2H-benzo[e][1,2]oxaborinine-8-carboxylic acid]
- IC50 [1]: < 10 µM
- MIC [2]: 2 to 4 µg/mL (≈ 2.52 to 5.04 µM)
- MIC [3]: < 1 µg/mL
- EC50 [5]: < 10 µM
- MIC [6]: < 1 µg/mL

Structure (SMILES): O=C(NCCCN1CCN(C(=O)NC(C(=O)N[C@H]2Cc3ccc(F)c(C(=O)O)c3OB2O)c2cc(F)c(O)c(O)c2Cl)C(=O)C1=O)c1ccc(O)c(F)c1 (stereo partly drawn) [Example 304, (3R)-3-(2-(2-chloro-5-fluoro-3,4-dihydroxyphenyl)-2-(4-(3-(3-fluoro-4-hydroxybenzamido)propyl)-2,3-dioxopiperazine-1-carboxamido)acetamido)-7-fluoro-2-hydroxy-3,4-dihydro-2H-benzo[e][1,2]oxaborinine-8-carboxylic acid]
- IC50 [1]: < 10 µM
- MIC [2]: 2 to 4 µg/mL (≈ 2.57 to 5.14 µM)
- MIC [3]: < 1 µg/mL
- EC50 [5]: < 10 µM
- MIC [6]: < 1 µg/mL

Structure (SMILES): O=C(NCCCN1CCN(C(=O)NC(C(=O)N[C@H]2Cc3ccc(F)c(C(=O)O)c3OB2O)c2cc(F)c(O)c(O)c2Cl)C(=O)C1=O)c1ccnc(F)c1 (stereo partly drawn) [Example 466, (3R)-3-(2-(2-chloro-5-fluoro-3,4-dihydroxyphenyl)-2-(4-(3-(2-fluoroisonicotinamido)propyl)-2,3-dioxopiperazine-1-carboxamido)acetamido)-7-fluoro-2-hydroxy-3,4-dihydro-2H-benzo[e][1,2]oxaborinine-8-carboxylic acid]
- IC50 [1]: < 10 µM
- MIC [2]: 2 to 4 µg/mL (≈ 2.62 to 5.24 µM)
- MIC [3]: 2 to 4 µg/mL (≈ 2.62 to 5.24 µM)
- EC50 [4]: 10 to 50 µM
- MIC [6]: 2 to 4 µg/mL (≈ 2.62 to 5.24 µM)

From patent publication US20240270762A1, “PENICILLIN-BINDING PROTEIN INHIBITORS” (priority 2021, published 2024)
